Data: patent US20240116909A1, “NOVEL COMPOUNDS USEFUL AS STING AGONISTS AND USES THEREOF” (priority 2021, published 2024)

Molecular target: human STING WT (Homo sapiens (Human), UniProt Q86WV6)
Assay: Human STING WT binding assay (Cisbio HTRF)
Details: human STING WT protein 6His-tagged, 3 hours at RT, read-out: hSTING WT binding IC50
Procedure: Cisbio Bioassays' human STING WT binding assay (#64BDSTGPEG & 64BDSTGPEH, Cisbio) is for quantitative measurement of human STING WT ligand using HTRF® technology.
Negative control: Dispense 5 μL of diluent into each negative control well. Standard: Dispense 5 μL of each Human STING WT Standard 2′3′-cGAMP (Std 0-Std 7) into each standard well. Compound: Dispense 5 μL of compound into each compound well.
Negative control: Add 5 μL of detection buffer to all wells. Other wells: Add 5 μL of human STING WT protein 6His-tagged protein to all wells.
Add 10 μL of premixed STING WT ligand d2 reagent and 6His Tb antibody working solution to all wells.
Seal the plate and incubate 3 hours at RT or at Over Night if necessary.
Remove the plate sealer and read on an HTRF® compatible reader (PerkinElmer, USA). Results were analyzed with a two-wavelength signal ratio: intensity (665 nm)/intensity (620 nm).
Fit the data in GraphPad to obtain IC50 values using equation (2)
Y=Bottom+(Top−Bottom)/(1+10^((Log IC50−X)*Hill Slope)) Equation (2): […]
Y is HTRF Ratio and X is compound concentration.

human STING WT, sequence (Q86WV6 whole entry): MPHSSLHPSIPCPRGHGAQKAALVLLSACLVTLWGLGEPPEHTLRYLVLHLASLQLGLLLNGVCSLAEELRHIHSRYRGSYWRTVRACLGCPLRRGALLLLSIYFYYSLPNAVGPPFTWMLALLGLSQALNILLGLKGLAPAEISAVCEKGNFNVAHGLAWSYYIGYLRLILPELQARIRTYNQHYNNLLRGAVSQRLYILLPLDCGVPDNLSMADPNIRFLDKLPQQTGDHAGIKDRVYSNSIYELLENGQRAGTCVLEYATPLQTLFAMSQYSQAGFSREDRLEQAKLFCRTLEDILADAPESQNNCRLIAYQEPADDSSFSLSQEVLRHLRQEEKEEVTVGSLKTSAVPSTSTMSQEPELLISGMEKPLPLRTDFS

SMILES	IC50
COc1cc2sc(C(=O)[C@H]3C[C@@H]3C(=O)O)cc2cc1OCCCOc1c(OC)cc2c(c1F)CN(C(=O)CCC(=O)O)C2 (relative stereo) [Example 21, trans-2-(5-(3-((2-(3-carboxypropanoyl)-4-fluoro-6-methoxyisoindolin-5-yl)oxy)propoxy)-6-methoxybenzo[b]thiophene-2-carbonyl)cyclopropane-1-carboxylic Acid]	159 nM
COc1cc2c(cc1OCCCOc1cc3cc(C(=O)CCC(=O)O)sc3cc1OC)CN(C(=O)CCC(=O)O)C2 [Example 1, 4-(5-(3-((2-(3-carboxypropanoyl)-6-methoxybenzo[b]thiophen-5-yl)oxy)propoxy)-6-methoxyisoindolin-2-yl)-4-oxobutanoic Acid]	0.06 nM
COc1cc2c(c(Cl)c1OCCCOc1c(OC)cc3sc(C(=O)CCC(=O)O)cc3c1F)CN(C(=O)CCC(=O)O)C2 [Example 2, 4-(5-(3-((2-(3-carboxypropanoyl)-4-chloro-6-methoxyisoindolin-5-yl)oxy)propoxy)-4-fluoro-6-methoxybenzo[b]thiophen-2-yl)-4-oxobutanoic Acid]	11.4 nM
COc1cc2c(c(F)c1OCCCOc1c(OC)cc3sc(C(=O)CCC(=O)O)cc3c1Cl)CN(C(=O)CCC(=O)O)C2 [Example 3, 4-(5-(3-((2-(3-carboxypropanoyl)-4-chloro-6-methoxybenzo[b]thiophen-5-yl)oxy)propoxy)-4-fluoro-6-methoxyisoindolin-2-yl)-4-oxobutanoic Acid]	8.4 nM
COc1cc2c(c(F)c1OCCCOc1c(OC)cc3sc(C(=O)CCC(=O)O)cc3c1F)CN(C(=O)CCC(=O)O)C2 [Example 4, 4-(5-(3-((2-(3-carboxypropanoyl)-4-fluoro-6-methoxybenzo[b]thiophen-5-yl)oxy)propoxy)-4-fluoro-6-methoxyisoindolin-2-yl)-4-oxobutanoic Acid]	0.18 nM
COc1cc2c(cc1OCCCOc1cc3cc(C(=O)C[C@H](C)C(=O)O)sc3cc1OC)CN(C(=O)C[C@H](C)C(=O)O)C2 [Example 5, Sodium (S)-4-(5-(3-((2-((S)-3-carboxylatobutanoyl)-6-methoxybenzo[b]thiophen-5-yl)oxy)propoxy)-6-methoxyisoindolin-2-yl)-2-methyl-4-oxobutanoate]	0.32 nM
COc1cc2c(cc1OCCCOc1c(OC)cc3sc(C(=O)C[C@H](C)C(=O)O)cc3c1F)CN(C(=O)C[C@H](C)C(=O)O)C2 [Example 6, Sodium (S)-4-(5-(3-((2-((S)-3-carboxylatobutanoyl)-4-fluoro-6-methoxybenzo[b]thiophen-5-yl)oxy)propoxy)-6-methoxyisoindolin-2-yl)-2-methyl-4-oxobutanoate]	0.36 nM
COc1cc2c(cc1OCCCOc1nc3cc(C(=O)CCC(=O)O)sc3cc1OC)CN(C(=O)CCC(=O)O)C2 [Example 8, Sodium 4-(5-(3-((2-(3-carboxylatopropanoyl)-6-methoxyisoindolin-5-yl)oxy)propoxy)-6-methoxythieno[3,2-b]pyridin-2-yl)-4-oxobutanoate]	0.65 nM
COc1cc2c(cc1OCCCOc1cc3cc(C(=O)CCC(=O)O)sc3cc1Br)CN(C(=O)CCC(=O)O)C2 [Example 9, 4-(5-(3-((6-bromo-2-(3-carboxypropanoyl)benzo[b]thiophen-5-yl)oxy)propoxy)-6-methoxyisoindolin-2-yl)-4-oxobutanoic Acid]	2.23 nM
COc1cc2sc(C(=O)CCC(=O)O)cc2cc1OCCCOc1c(OC)cc2c(c1F)CN(C(=O)CCC(=O)O)C2 [Example 10, 4-(5-(3-((2-(3-carboxypropanoyl)-4-fluoro-6-methoxyisoindolin-5-yl)oxy)propoxy)-6-methoxybenzo[b]thiophen-2-yl)-4-oxobutanoic Acid]	0.28 nM
COc1cc2c(nc1OCCCOc1nc3cc(C(=O)CCC(=O)O)sc3cc1OC)CN(C(=O)CCC(=O)O)C2 [Example 11, 4-(5-(3-((6-(3-carboxypropanoyl)-3-methoxy-6,7-dihydro-5H-pyrrolo[3,4-b]pyridin-2-yl)oxy)propoxy)-6-methoxythieno[3,2-b]pyridin-2-yl)-4-oxobutanoic Acid]	2.54 nM
COc1cc2sc(C(=O)CCC(=O)O)cc2cc1OCCCOc1c(OC)cc2c(c1Cl)CN(C(=O)CCC(=O)O)C2 [Example 14, 4-(5-(3-((2-(3-carboxypropanoyl)-4-chloro-6-methoxyisoindolin-5-yl)oxy)propoxy)-6-methoxybenzo[b]thiophen-2-yl)-4-oxobutanoic Acid]	46.6 nM
COc1cc2c(cc1OCCCOc1cc3sc(C(=O)CCC(=O)O)cc3nc1OC)CN(C(=O)CCC(=O)O)C2 [Example 15, 4-(5-(3-((2-(3-carboxypropanoyl)-5-methoxythieno[3,2-b]pyridin-6-yl)oxy)propoxy)-6-methoxyisoindolin-2-yl)-4-oxobutanoic Acid]	92.6 nM
C=C(COc1c(OC)cc2c(c1Cl)CN(C(=O)CCC(=O)O)C2)COc1c(OC)cc2sc(C(=O)CCC(=O)O)cc2c1F [Example 16, 4-(5-((2-(((2-(3-carboxypropanoyl)-4-chloro-6-methoxyisoindolin-5-yl)oxy)methyl)allyl)oxy)-4-fluoro-6-methoxybenzo[b]thiophen-2-yl)-4-oxobutanoic Acid]	> 150 nM
COc1cc2c(c(F)c1OCCCOc1c(OC)cc3sc(C(=O)C[C@H](C)C(=O)O)cc3c1F)CN(C(=O)C[C@H](C)C(=O)O)C2 [Example 17, (S)-4-(5-(3-((2-((S)-3-carboxybutanoyl)-4-fluoro-6-methoxybenzo[b]thiophen-5-yl)oxy)propoxy)-4-fluoro-6-methoxyisoindolin-2-yl)-2-methyl-4-oxobutanoic Acid]	0.19 nM
COc1cc2c(cc1OCCCOc1cc3cc(C(=O)NCCC(=O)O)sc3cc1OC)CN(C(=O)CCC(=O)O)C2 [Example 18, 4-(5-(3-((2-((2-carboxyethyl)carbamoyl)-6-methoxybenzo[b]thiophen-5-yl)oxy)propoxy)-6-methoxyisoindolin-2-yl)-4-oxobutanoic Acid]	4.59 nM
C=C(COc1cc2c(cc1OC)CN(C(=O)CCC(=O)O)C2)COc1cc2cc(C(=O)CCC(=O)O)sc2cc1OC [Example 19, 4-(5-((2-(((2-(3-carboxypropanoyl)-6-methoxybenzo[b]thiophen-5-yl)oxy)methyl)allyl)oxy)-6-methoxyisoindolin-2-yl)-4-oxobutanoic Acid]	54.6 nM
COc1cc2c(cc1OCCCOc1c(OC)cc3sc(C(=O)CCC(=O)O)cc3c1F)CN(C(=O)CCC(=O)O)C2 [Example 20, 4-(5-(3-((2-(3-carboxypropanoyl)-4-fluoro-6-methoxybenzo[b]thiophen-5-yl)oxy)propoxy)-6-methoxyisoindolin-2-yl)-4-oxobutanoic Acid]	0.19 nM
